{"source": "patent US20230233569A1", "about": "(Revolution Medicines, Inc., priority 2020, published 2023)", "type_in_all_cases": "cell-based", "key": {"Capan-1 (K-Ras G12V) [1]": {"system": "Capan-1 (K-Ras G12V)", "experiment": "Potency assay: pERK, other cell line", "conditions": "Homo sapiens"}, "Capan-1 (K-Ras G12V) [2]": {"system": "Capan-1 (K-Ras G12V)", "experiment": "CellTiter-Glo cell viability assay, 5-day treatment", "conditions": "Homo sapiens, CAPAN-1, 120 h, 5-day treatment; read-out: Capan-1 Cell Viability assay data (K-Ras G12V, IC50)", "how_it_was_run": "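Viability is read as luminescence on day 5 after direct compound addition to plated cells, following about 30 minutes' room-temperature equilibration. Each signal is scaled to mean DMSO as 100%.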"}, "AsPC-1 (K-Ras G12D)": {"system": "AsPC-1 (K-Ras G12D)", "experiment": "Potency assay: pERK, other cell line", "conditions": "Homo sapiens, ASPC1"}}}
{"smiles": "CCn1c(-c2cccnc2[C@H](C)OC)c2c3cc(ccc31)-c1cc(O)cc(c1)C[C@H](NC(=O)[C@H](C(C)C)N(C)C(=O)[C@H]1CCN(C(=O)OC)C1)C(=O)N1CCC[C@H](N1)C(=O)OCC(C)(C)C2", "note": "(atropisomer, axis not shown) [Example A3]", "values": [{"measurement": "EC50", "setting": "Capan-1 (K-Ras G12V) [1]", "value": 8, "unit": "nM"}, {"measurement": "IC50", "setting": "Capan-1 (K-Ras G12V) [2]", "value": "10 to 100", "unit": "nM"}, {"measurement": "EC50", "setting": "AsPC-1 (K-Ras G12D)", "value": 144, "unit": "nM"}]}
